{"source": "patent US20070218475A1", "about": "“Efficient drug screening for protein targets” (priority 2005, published 2007)", "key": {"[1]": {"biological_target": "T1, SmoA1 (Mus musculus, UniProt P56726, W539L)", "T1 construct": "expressed in transfected cells; host or cells: Cos-1", "T1 sequence (P56726 33-793 W539L)": "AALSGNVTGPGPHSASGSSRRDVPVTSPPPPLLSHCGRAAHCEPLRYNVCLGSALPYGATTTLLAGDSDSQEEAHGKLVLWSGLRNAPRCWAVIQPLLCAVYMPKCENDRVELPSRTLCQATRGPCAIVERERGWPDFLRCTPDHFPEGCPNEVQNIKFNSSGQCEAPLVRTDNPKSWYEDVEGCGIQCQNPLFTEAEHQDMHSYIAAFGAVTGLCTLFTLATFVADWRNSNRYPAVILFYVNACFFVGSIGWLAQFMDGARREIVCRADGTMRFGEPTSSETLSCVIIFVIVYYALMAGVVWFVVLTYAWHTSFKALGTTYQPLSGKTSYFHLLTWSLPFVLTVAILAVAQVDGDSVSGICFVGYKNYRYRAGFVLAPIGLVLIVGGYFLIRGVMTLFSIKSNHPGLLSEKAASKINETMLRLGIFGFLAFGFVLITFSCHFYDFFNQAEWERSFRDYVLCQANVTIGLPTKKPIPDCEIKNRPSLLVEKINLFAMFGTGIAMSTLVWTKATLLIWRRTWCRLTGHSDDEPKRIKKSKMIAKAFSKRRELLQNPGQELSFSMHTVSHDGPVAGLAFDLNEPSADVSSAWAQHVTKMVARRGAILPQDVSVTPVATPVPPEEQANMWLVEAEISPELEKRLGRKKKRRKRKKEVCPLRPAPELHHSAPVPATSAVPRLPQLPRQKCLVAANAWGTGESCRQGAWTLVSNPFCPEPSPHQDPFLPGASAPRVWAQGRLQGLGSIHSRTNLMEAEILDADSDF", "assay": "Fluorescence (BODIPY-cyclopamine) binding assay, SmoA1-expressing Cos-1 cells", "settings": "flow cytometry", "method": "(§1) Fluorescence binding assay: Cos-1 cells were transfected in 6-well plates with the described expression vectors (1 μg/well), and after two days, incubated in DMEM containing 10% fetal bovine serum, 5 nM BODIPY-cyclopamine, and various concentrations of the indicated competitors for 4-6 h at 37° C. For flow cytometry experiments, the cells were then trypsinized, collected by centrifugation, resuspended in phenol red-free DMEM containing 0.5% bovine calf serum, and analyzed for green fluorescence (FACScan, Beckton Dickinson). A fluorescence intensity range that excludes non-transfected cells was then selected for quantification of specific BODIPY-cyclopamine binding (see brackets in FIGS. 2C, 2D, and 3A). Curve fitting analysis was performed with Kaleidograph (Synergy Software)."}, "[2]": {"biological_target": "T2, Smo (Mus musculus, UniProt P56726)", "T2 construct": "expressed in transfected cells; host or cells: Cos-1", "T2 sequence (P56726 33-793)": "as the sequence (P56726 33-793 W539L) above, with L507W counted along it", "assay": "Fluorescence (BODIPY-cyclopamine) binding assay, Smo-expressing Cos-1 cells", "settings": "Cos-1 cells transiently transfected, fluorescence microscopy and flow cytometry", "method": "(§2) For flow cytometry experiments, the cells were then trypsinized, collected by centrifugation, resuspended in phenol red-free DMEM containing 0.5% bovine calf serum, and analyzed for green fluorescence (FACScan, Beckton Dickinson). […] Curve fitting analysis was performed with Kaleidograph (Synergy Software)."}, "[3]": {"biological_target": "T3, mouse Ptch (Mus musculus, UniProt Q61115)", "T3 construct": "expressed in transfected cells; host or cells: Cos-1", "T3 sequence (Q61115 1-1434)": "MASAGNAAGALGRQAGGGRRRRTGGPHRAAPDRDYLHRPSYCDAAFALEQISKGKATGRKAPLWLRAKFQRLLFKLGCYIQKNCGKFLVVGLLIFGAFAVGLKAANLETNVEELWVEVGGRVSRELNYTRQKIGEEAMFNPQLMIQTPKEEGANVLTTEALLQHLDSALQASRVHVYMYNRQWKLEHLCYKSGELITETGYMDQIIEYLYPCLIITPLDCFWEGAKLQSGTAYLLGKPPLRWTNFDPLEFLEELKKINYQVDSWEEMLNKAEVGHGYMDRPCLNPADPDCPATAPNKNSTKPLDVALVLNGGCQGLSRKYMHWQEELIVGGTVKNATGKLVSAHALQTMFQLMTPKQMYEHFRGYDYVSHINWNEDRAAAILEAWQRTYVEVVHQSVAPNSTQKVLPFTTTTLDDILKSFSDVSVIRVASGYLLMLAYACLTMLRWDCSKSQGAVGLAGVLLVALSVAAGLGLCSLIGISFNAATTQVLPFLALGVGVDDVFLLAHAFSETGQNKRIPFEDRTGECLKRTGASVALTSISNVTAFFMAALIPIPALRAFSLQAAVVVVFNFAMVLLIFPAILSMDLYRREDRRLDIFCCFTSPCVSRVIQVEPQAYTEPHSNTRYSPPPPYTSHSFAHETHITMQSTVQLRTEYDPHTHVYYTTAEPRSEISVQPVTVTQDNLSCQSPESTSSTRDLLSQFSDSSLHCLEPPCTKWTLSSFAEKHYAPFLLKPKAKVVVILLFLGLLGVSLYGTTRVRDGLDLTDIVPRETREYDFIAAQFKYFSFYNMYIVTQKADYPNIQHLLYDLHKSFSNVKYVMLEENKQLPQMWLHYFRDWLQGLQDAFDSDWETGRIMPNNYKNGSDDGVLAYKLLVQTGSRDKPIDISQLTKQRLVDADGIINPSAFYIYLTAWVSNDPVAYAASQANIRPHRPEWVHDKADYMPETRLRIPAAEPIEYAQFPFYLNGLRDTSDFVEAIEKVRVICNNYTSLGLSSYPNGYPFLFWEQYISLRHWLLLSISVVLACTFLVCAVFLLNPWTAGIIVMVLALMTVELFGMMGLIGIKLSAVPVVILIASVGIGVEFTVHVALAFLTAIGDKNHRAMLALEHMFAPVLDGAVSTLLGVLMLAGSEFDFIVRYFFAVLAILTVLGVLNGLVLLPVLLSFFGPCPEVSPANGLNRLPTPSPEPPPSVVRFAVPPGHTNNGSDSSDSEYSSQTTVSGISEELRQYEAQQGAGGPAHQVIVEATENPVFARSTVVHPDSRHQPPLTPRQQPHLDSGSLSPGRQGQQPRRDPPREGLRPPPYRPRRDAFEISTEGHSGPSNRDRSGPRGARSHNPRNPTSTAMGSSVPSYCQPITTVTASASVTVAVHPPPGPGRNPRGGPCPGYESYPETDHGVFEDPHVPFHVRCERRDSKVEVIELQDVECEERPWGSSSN", "assay": "Fluorescence (BODIPY-cyclopamine) binding assay, Cos-1 cells expressing Ptch", "settings": "flow cytometry", "method": "as §1"}, "[4]": {"biological_target": "T4, mouse Frizzled7 protein (Mus musculus, UniProt Q61090)", "T4 construct": "expressed in transfected cells; host or cells: Cos-1", "assay": "Fluorescence (BODIPY-cyclopamine) binding assay, Cos-1 cells expressing Frizzled7", "settings": "flow cytometry", "method": "as §1"}, "[5]": {"biological_target": "Shh signaling", "assay": "Shh-LIGHT2 assay for Hh pathway activation (Gli-dependent luciferase reporter)", "assay_type": "cell-based, mouse", "settings": "Shh-LIGHT2 mouse cultured cell assay; read-out: IC50, inhibition of Shh signaling"}, "[6]": {"biological_target": "T5, SmoΔCT (Mus musculus, UniProt P56726)", "T5 construct": "expressed in transfected cells; host or cells: Cos-1", "T5 sequence (P56726 33-555 limits assumed)": "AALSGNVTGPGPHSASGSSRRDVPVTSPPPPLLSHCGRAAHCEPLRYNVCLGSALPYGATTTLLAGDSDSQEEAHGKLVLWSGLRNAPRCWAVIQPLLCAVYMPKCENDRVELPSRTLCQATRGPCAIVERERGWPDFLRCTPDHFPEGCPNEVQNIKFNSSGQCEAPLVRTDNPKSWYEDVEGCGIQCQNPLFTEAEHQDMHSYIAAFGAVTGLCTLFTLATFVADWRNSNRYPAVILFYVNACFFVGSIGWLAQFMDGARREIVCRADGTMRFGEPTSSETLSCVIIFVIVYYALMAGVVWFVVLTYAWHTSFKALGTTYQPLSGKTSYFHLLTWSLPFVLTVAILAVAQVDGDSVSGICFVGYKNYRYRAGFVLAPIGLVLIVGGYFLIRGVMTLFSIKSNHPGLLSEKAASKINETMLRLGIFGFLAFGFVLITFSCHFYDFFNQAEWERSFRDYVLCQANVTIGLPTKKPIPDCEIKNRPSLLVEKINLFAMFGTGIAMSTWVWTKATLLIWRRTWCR", "assay": "Fluorescence (BODIPY-cyclopamine) binding assay, Cos-1 cells expressing SmoΔCT", "settings": "Cos-1 cells, flow cytometry", "description": "Preparation of Smo fusion proteins and deletion mutants: Both Smo-Myc3 and SmoA1-Myc3 are C-terminally fused to three consecutive Myc epitopes. […] Smo-GFP is comprised of green fluorescent protein fused to the C-terminus of Smo, and the fluorescent proteins in SmoA1-YFP, and SmoA1-GFP are similarly fused to the C-terminus of SmoA1. All constructs were generated by PCR and verified by DNA sequencing.\nas §2"}}}
{"smiles": "CC1=C2CC3C(CC=C4C[C@@H](O)CCC43C)C2CCC12O[C@@H]1CC(C)CN(CCNC(=O)CCCCCNC(=O)CCC3=[N+]4C(=Cc5c(C)cc(C)n5[B-]4(F)F)C=C3)C1C2C", "note": "(stereo partly drawn) [BODIPY-cyclopamine]", "values": [{"measurement": "binding to cells expressing SmoA1", "setting": "[1]", "value": "did not bind"}, {"measurement": "binding to Smo-expressing cells", "setting": "[2]", "value": "bound with high capacity"}, {"measurement": "binding to cells expressing mouse Ptch", "setting": "[3]", "value": "did not bind"}, {"measurement": "binding to cells expressing mouse Frizzled7", "setting": "[4]", "value": "did not bind"}, {"measurement": "IC50", "setting": "[5]", "value": 150, "unit": "nM"}, {"measurement": "binding to cells expressing SmoΔCT", "setting": "[6]", "value": "can bind"}]}
